# Measurements from patent US4536505A, “Certain N-(pyridyl) indoles” (Ciba-Geigy Corporation, priority 1983, dated 1985).
# How the values were obtained:
# bleeding time in the rat = format: in vivo; details: about 1.0 mg/kg p.o.
# Text: Indicative of the utility in thromboembolism, compounds of this invention also prolong bleeding time in the rat.
# thromboxane synthetase = target: T1, thromboxane synthetase (Homo sapiens, UniProt P24557); assay: in vitro inhibition of the thromboxane synthetase enzyme; format: biochemical, human (lysed human platelets); details: 30 minutes incubation; ratio T×B2/PGF2 α+β reduced to 50% of control
# T1 construct: crude microsomal preparation of thromboxane synthetase from lysed human platelets; from tissue; host or cells: lysed human platelets, crude microsomal preparation
# T1 sequence (P24557 1-533): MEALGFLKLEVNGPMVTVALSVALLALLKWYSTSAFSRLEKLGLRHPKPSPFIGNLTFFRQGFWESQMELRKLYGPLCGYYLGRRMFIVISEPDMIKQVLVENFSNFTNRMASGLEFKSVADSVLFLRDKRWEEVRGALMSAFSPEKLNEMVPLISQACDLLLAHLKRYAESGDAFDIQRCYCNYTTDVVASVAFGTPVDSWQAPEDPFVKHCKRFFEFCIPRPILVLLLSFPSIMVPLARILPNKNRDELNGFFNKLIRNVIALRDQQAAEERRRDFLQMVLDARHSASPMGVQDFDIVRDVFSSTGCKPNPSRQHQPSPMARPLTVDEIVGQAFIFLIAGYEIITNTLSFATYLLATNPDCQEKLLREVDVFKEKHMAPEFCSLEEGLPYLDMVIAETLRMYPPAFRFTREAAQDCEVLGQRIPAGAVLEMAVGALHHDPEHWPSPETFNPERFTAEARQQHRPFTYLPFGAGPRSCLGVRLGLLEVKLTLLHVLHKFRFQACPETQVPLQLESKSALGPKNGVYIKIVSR
# Experimental: Res. Comm. 74, 1432 (1977); the testing procedure is as follows: ^14 C-Arachidonic acid is incubated with an enzyme consisting of solubilized and partially purified prostaglandin cyclo-oxygenase from sheep seminal vesicles and a crude microsomal preparation of thromboxane synthetase from lysed human platelets. The test compound (dissolved in buffer, or if necessary, in a small amount of ethanol) is added to the incubation medium. At the end of the incubation period (30 minutes), Prostaglandin E2 (PGE2) is reduced to a mixture of Prostaglandin F2 α and F2 β (PGF2 α+β) by addition of sodium borohydride. The radioactive products and excess substrate are extracted into ethyl acetate; the extract is evaporated to dryness; the residue is dissolved in acetone, spotted on thin-layer plates and chromatographed in the solvent system toluene:acetone:glacial acetic acid (100 volumes:100 volumes:3 volumes). The radioactive zones are located; those corresponding to Thromboxane B2 (T×B2) and PGF2 α+β are transferred to liquid scintillation vials and counted. The ratio of counts for T×B2 /PGF2 α+β is calculated for each concentration of test compound and IC50 values are determined graphically as the concentration of test compound at which the ratio of T×B2 /PGF2 α+β is reduced to 50% of the control value.
# [1] = target: T2, prostaglandin cyclooxygenase (Ovis aries, UniProt P05979); assay: in-vitro effect on prostaglandin cyclooxygenase; format: biochemical, sheep (seminal vesicle microsomes); details: 50% reduction in the amount of PGE2 synthesized; read-out: IC50 for cyclooxygenase inhibition
# T2 construct: Lyophilized sheep seminal vesicle microsomes are utilized as the prostaglandin-synthesizing enzyme preparation; from tissue; host or cells: lyophilized sheep seminal vesicle microsomes
# T2 sequence (P05979 25-600): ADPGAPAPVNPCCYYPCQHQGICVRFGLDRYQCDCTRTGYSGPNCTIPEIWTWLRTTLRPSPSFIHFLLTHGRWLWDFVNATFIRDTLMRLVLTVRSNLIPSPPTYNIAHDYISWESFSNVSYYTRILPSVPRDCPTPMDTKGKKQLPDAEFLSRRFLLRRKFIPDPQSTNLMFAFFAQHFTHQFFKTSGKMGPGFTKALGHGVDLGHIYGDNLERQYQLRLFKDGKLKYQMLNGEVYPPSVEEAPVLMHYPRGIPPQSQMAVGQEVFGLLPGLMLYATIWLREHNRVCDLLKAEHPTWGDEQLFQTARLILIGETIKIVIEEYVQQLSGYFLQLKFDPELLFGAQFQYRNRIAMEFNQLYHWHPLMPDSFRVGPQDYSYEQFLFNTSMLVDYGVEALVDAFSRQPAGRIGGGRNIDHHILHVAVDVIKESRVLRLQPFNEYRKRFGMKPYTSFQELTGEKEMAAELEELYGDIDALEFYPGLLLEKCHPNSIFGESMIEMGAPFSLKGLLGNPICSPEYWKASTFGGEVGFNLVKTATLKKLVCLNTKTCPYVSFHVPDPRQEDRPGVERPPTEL
# Experimental: The in-vitro effect on prostaglandin cyclooxygenase is measured by a modification of the method of Takeguchi et al. described in Biochemistry 10, 2372 (1971); the testing procedure is as follows:
# Lyophilized sheep seminal vesicle microsomes are utilized as the prostaglandin-synthesizing enzyme preparation. The conversion of ^14 C-arachidonic acid to PGE2 is measured. Test compounds (dissolved in buffer, or if necessary, in a small amount of ethanol) are added to the incubation mixture. The prostaglandins are extracted and separated by thin-layer chromatography; the plates are scanned, the radioactive zones corresponding to PGE2 are transferred to liquid scintillation vials and counted for radioactivity. IC50 values for inhibition are determined graphically as the concentration of test compound causing a 50% reduction in the amount of PGE2 synthesized.
# thromboxane B2 = assay: in vivo reduction of plasma levels of thromboxane (thromboxane B2) in rats after ionophore A23187; details: rat, oral dose of 0.04 mg/kg or lower
# Experimental: (§1) The inhibition of the synthesis and the reduction of plasma levels of thromboxane is determined in vivo on administration to rats in the following manner (as adapted from the procedures described by Tai et al. in Anal. Biochem. 87:343, 1978 and by Salmon in Prostaglandins 15:383, 1978):
# (§2) Rats are dosed with vehicle or test drug and injected intravenously with ionophore A23187 (0.5 mg/kg) two hours later. Blood is collected for analysis 2 minutes after the ionophore injection. A single aliquot of each plasma sample is assayed for thromboxane B2 and another aliquot for 6-keto-PGF1 α, the stable metabolites of thromboxane A2 and prostacyclin (PGI2) respectively, by radioimmunoassay.
# prostacyclin = assay: in vivo plasma level of prostacyclin (6-keto-PGF1 α) in rats after ionophore A23187; details: rat, oral dose of 0.04 mg/kg or lower
# Experimental: as §1, §2
# lipoxygenase = target: T3, lipoxygenase (Cavia porcellus, UniProt A0A286X958); assay: lipoxygenase inhibition in guinea pig peritoneal neutrophils; format: cell-based; details: 14C-arachidonic acid (4 μM), A-23187 (2 μM), 37° C.; LTB4 and 5-HETE
# T3 construct: Guinea pig peritoneal neutrophils; endogenous in cells; host or cells: guinea pig peritoneal neutrophils (elicited with sodium caseinate)
# T3 sequence (A0A286X958 1-674): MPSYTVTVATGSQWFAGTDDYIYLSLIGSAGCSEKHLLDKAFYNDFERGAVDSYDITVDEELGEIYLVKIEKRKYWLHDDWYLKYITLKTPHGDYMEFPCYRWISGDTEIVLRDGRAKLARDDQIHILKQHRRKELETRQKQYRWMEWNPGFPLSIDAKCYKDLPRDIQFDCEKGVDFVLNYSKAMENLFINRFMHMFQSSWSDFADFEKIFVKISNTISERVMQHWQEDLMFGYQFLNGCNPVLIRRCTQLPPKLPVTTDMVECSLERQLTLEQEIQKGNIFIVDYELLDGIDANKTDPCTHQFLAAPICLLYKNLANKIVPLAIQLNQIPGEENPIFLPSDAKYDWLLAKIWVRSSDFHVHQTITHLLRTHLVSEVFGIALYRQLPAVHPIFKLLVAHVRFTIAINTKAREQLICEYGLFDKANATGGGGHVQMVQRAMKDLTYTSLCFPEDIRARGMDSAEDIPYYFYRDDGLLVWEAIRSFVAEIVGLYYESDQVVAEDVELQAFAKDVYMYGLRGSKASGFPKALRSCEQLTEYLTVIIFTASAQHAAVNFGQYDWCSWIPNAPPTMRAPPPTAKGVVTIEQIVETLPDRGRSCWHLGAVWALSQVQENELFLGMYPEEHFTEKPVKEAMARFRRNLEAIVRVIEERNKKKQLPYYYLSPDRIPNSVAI
# Experimental: Guinea pig peritoneal neutrophils (elicited by an i.p. injection of sodium caseinate 17 hours prior to harvesting) are preincubated with indomethacin (1 μM) and test drugs for 5 minutes at 37° C. ^14 C-arachidonic acid (4 μM) and calcium ionophore A-23187 (2 μM) are added and the samples are incubated for another 5 minutes at 37° C. The reaction is terminated by the addition of 1N HCl and the products are extracted with ethyl acetate and separated by thin-layer chromatography; the plates are scanned and the radioactive zones corresponding to LTB4 and 5-HETE are scraped off, transferred to liquid scintillation vials and counted for radioactivity.
IC50 (thromboxane synthetase) [µM],IC50 [1] [µM],SMILES,prolongation of bleeding time (bleeding time in the rat),decrease of plasma concentration of thromboxane B2 (thromboxane B2),increase in the plasma level of prostacyclin (prostacyclin),IC50 (lipoxygenase) [µM]
~0.0011,> 1000,O=C(O)CCCCc1cn(-c2cccnc2)c2ccccc12 [3-(4-carboxybutyl)-N-(3-pyridyl)indole],prolongs bleeding time,over 50%,approximately 5 fold,
~0.004,,O=C(O)CCCCCc1cn(-c2cccnc2)c2ccccc12 [3-(5-carboxypentyl)-N-(3-pyridyl)indole],,,,

SMILES,IC50 (thromboxane synthetase) [µM],IC50 [1] [µM],prolongation of bleeding time (bleeding time in the rat),decrease of plasma concentration of thromboxane B2 (thromboxane B2),increase in the plasma level of prostacyclin (prostacyclin),IC50 (lipoxygenase) [µM]
O=C(O)CCCCc1cn(-c2cccnc2)c2ccc(Cl)cc12 [3-(4-carboxybutyl)-5-chloro-N-(3-pyridyl)indole],~0.0026,,,,,~30
